Measurements as given in paper PMC4923583, “A Phase I/II Clinical Trial of Belinostat (PXD101) in Combination with Doxorubicin in Patients with Soft Tissue Sarcomas” (Sarcoma, 2016).
“And” between values parts separate entries of the source, which are not always exact repeats. Identical values can stand only once.

Assays:
[1] = Pharmacokinetic analyses, plasma, cycle 1 day 4 and day 5
Experimental: (§1) The following PK parameters were determined: elimination half-life (t 1/2), maximum concentration (C max), time to maximum concentration (t max), area under the curve (AUC0−tlast and AUC∞), elimination rate constant (λz), and volume of distribution (V c and V ss). Blood sampling for belinostat alone was performed on cycle 1 day 4 (before treatment and 0 min, 5 min, 15 min, 30 min, 1 h, 2 h, 2 h 15 min, 2 h 30 min, 3 h, 4 h, 6 h, 8 h, and 24 h after treatment).

soft tissue sarcoma = conditions: single-agent doxorubicin, ref [6], cited from earlier work
[2] = test system: patients with STS and other solid tumours; assay: Dose escalation: maximum tolerated dose (MTD) and dose limiting toxicities (DLT); type: in vivo; conditions: highest tested dose level (cohort 4)
Experimental: Belinostat was administered as a 30-minute intravenous infusion every 24 hours on days 1–5 and on day 5 in combination with doxorubicin, in a 3-week schedule, and doxorubicin was given after belinostat. The dose escalation schedule was as follows: belinostat 600 mg/m^2 and 50 mg/m^2 doxorubicin (cohort 1), 600 mg/m^2 and 75 mg/m^2 doxorubicin (cohort 2), 800 mg/m^2 and 75 mg/m^2 doxorubicin (cohort 3), and 1000 mg/m^2 and 75 mg/m^2 doxorubicin (cohort 4).
Patients who achieved clinical benefit from the treatment (objective response or stable disease) could continue belinostat treatment beyond cycle 6. If the maximum cumulative dose of doxorubicin 450 mg/m^2 was reached, the treatment would continue with belinostat as monotherapy. In the phase I part, at least 3 patients were treated at each dose level. If a DLT was found in one of 3 patients, the cohort was expanded to a total of 6 patients.
Adverse events were graded using the NCI common terminology criteria for adverse events (NCI-CTCAE) version 3.0. […]

[3] = in vivo
Experimental: as §1

human tumour xenografts = conditions: cited from earlier work
[4] = test system: solid tumours and haematological neoplasms; design: method as in PMID 18245542, PMID 18510700; conditions: ref [10], [11], cited from earlier work

COc1cccc2c1C(=O)c1c(O)c3c(c(O)c1C2=O)C[C@@](O)(C(=O)CO)C[C@@H]3O[C@H]1C[C@H](N)[C@H](O)[C@H](C)O1 [doxorubicin]
half-life ([1]; human, plasma, intravenous): 7.6 to 10.8 h | Tmax ([1]; human, plasma, intravenous, 75 mg/m2, Median t max, doxorubicin 50 or 75 mg/m^2, day 5, range across groups): 0.24 to 0.5 h | Neutropenia (all grades) (soft tissue sarcoma; G-CSF allowed): 37% | Response rate (soft tissue sarcoma): 14% | MTD of doxorubicin in combination with belinostat ([2]; day 5, 3-week schedule): 75 mg/m^2 | Effect of coadministration of belinostat on doxorubicin exposure [3]: no effect

O=C(/C=C/c1cccc(S(=O)(=O)Nc2ccccc2)c1)NO [belinostat]
clearance ([1]; 600 mg/m^2 Bel + 50 mg/m^2 doxorubicin, Day 5 (with doxorubicin), N: 1, individual parameter presented): 1770 mL/min | t last ([1]; Median (min–max), 600 mg/m^2 Bel + 50 mg/m^2 doxorubicin, Day 4 (Bel alone), N = 3): 24.5 (22.4–24.6) h | t last ([1]; Median (min–max), 600 mg/m^2 Bel + 50 mg/m^2 doxorubicin, Day 5 (with doxorubicin), N = 3): 17.0 (17.0–20.1) h | t last ([1]; Median (min–max), 600 mg/m^2 Bel + 75 mg/m^2 doxorubicin, Day 4 (Bel alone), N = 7): 24.0 (8.55–24.5) h | t last ([1]; Median (min–max), 600 mg/m^2 Bel + 75 mg/m^2 doxorubicin, Day 5 (with doxorubicin), N = 6): 24.5 (16.2–24.7) h | t last ([1]; Median (min–max), 800 mg/m^2 Bel + 75 mg/m^2 doxorubicin, Day 4 (Bel alone), N = 8): 23.7 (8.47–24.6) h | t last ([1]; Median (min–max), 800 mg/m^2 Bel + 75 mg/m^2 doxorubicin, Day 5 (with doxorubicin), N = 6): 15.1 (8.50–24.6) h | t last ([1]; Median (min–max), 1000 mg/m^2 Bel + 75 mg/m^2 doxorubicin, Day 4 (Bel alone), N = 21): 8.65 (1.05–24.0) h | t last ([1]; Median (min–max), 1000 mg/m^2 Bel + 75 mg/m^2 doxorubicin, Day 5 (with doxorubicin), N = 19): 8.72 (8.50–24.7) h | Dose proportionality of pharmacokinetics ([1]; belinostat 600–1000 mg/m^2): dose-proportional pharmacokinetics | Effect of coadministration of doxorubicin on belinostat exposure ([1]; day 5 vs day 4): no evidence that coadministration of doxorubicin had any effect | AUC(0-t) ([1]; human, plasma, intravenous, 600 mg/m^2, AUC0–tlast, 600 mg/m^2 Bel + 50 mg/m^2 doxorubicin, Day 4 (Bel alone), N = 3): 10900 ng·h/mL | AUC(0-t) ([1]; human, plasma, intravenous, 600 mg/m^2, AUC0–tlast, 600 mg/m^2 Bel + 75 mg/m^2 doxorubicin, Day 4 (Bel alone), N = 7): 9670 ng·h/mL | Cmax ([1]; human, plasma, intravenous, 600 mg/m^2, C max, 600 mg/m^2 Bel + 50 mg/m^2 doxorubicin, Day 4 (Bel alone), N = 3): 21100 ng/mL | Cmax ([1]; human, plasma, intravenous, 600 mg/m^2, C max, 600 mg/m^2 Bel + 75 mg/m^2 doxorubicin, Day 4 (Bel alone), N = 7): 16800 ng/mL | clearance ([1]; human, plasma, intravenous, 600 mg/m^2, CL, 600 mg/m^2 Bel + 75 mg/m^2 doxorubicin, Day 4 (Bel alone), N: 3): 2150 mL/min | Vd ([1]; human, plasma, intravenous, 600 mg/m^2, V ss, 600 mg/m^2 Bel + 75 mg/m^2 doxorubicin, Day 4 (Bel alone), N: 3): 149 L | half-life ([1]; human, plasma, intravenous, 600 mg/m^2, t 1/2, 600 mg/m^2 Bel + 75 mg/m^2 doxorubicin, Day 4 (Bel alone), N: 3): 3.77 h | Tmax ([1]; human, plasma, intravenous, 600 mg/m^2, t max, Median (min–max), 600 mg/m^2 Bel + 50 mg/m^2 doxorubicin, Day 4 (Bel alone), N = 3): 0.533 h | Tmax ([1]; human, plasma, intravenous, 600 mg/m^2, t max, Median (min–max), 600 mg/m^2 Bel + 75 mg/m^2 doxorubicin, Day 4 (Bel alone), N = 7): 0.567 h | AUC(0-t) ([1]; human, plasma, intravenous, 800 mg/m^2, AUC0–tlast, 800 mg/m^2 Bel + 75 mg/m^2 doxorubicin, Day 4 (Bel alone), N = 8): 12200 ng·h/mL | Cmax ([1]; human, plasma, intravenous, 800 mg/m^2, C max, 800 mg/m^2 Bel + 75 mg/m^2 doxorubicin, Day 4 (Bel alone), N = 8): 21400 ng/mL | clearance ([1]; human, plasma, intravenous, 800 mg/m^2, CL, 800 mg/m^2 Bel + 75 mg/m^2 doxorubicin, Day 4 (Bel alone), N: 4): 2120 mL/min | Vd ([1]; human, plasma, intravenous, 800 mg/m^2, V ss, 800 mg/m^2 Bel + 75 mg/m^2 doxorubicin, Day 4 (Bel alone), N: 4): 107 L | half-life ([1]; human, plasma, intravenous, 800 mg/m^2, t 1/2, 800 mg/m^2 Bel + 75 mg/m^2 doxorubicin, Day 4 (Bel alone), N: 4): 1.91 h | Tmax ([1]; human, plasma, intravenous, 800 mg/m^2, t max, Median (min–max), 800 mg/m^2 Bel + 75 mg/m^2 doxorubicin, Day 4 (Bel alone), N = 8): 0.533 h | half-life ([1]; human, plasma, intravenous, 1000 mg/m2, Geometric mean apparent elimination half-life (t 1/2), belinostat 600, 800 and 1000 mg/m^2, day 4 and day 5, range across groups): 1.9 to 4.8 h | AUC(0-t) ([1]; human, plasma, intravenous, 1000 mg/m^2, AUC0–tlast, 1000 mg/m^2 Bel + 75 mg/m^2 doxorubicin, Day 4 (Bel alone), N = 21): 23100 ng·h/mL | Cmax ([1]; human, plasma, intravenous, 1000 mg/m^2, C max, 1000 mg/m^2 Bel + 75 mg/m^2 doxorubicin, Day 4 (Bel alone), N = 21): 41100 ng/mL | clearance ([1]; human, plasma, intravenous, 1000 mg/m^2, CL, 1000 mg/m^2 Bel + 75 mg/m^2 doxorubicin, Day 4 (Bel alone), N: 18): 1360 mL/min | Vd ([1]; human, plasma, intravenous, 1000 mg/m^2, V ss, 1000 mg/m^2 Bel + 75 mg/m^2 doxorubicin, Day 4 (Bel alone), N: 18): 51 L | half-life ([1]; human, plasma, intravenous, 1000 mg/m^2, t 1/2, 1000 mg/m^2 Bel + 75 mg/m^2 doxorubicin, Day 4 (Bel alone), N: 18): 1.48 h | Tmax ([1]; human, plasma, intravenous, 1000 mg/m^2, t max, Median (min–max), 1000 mg/m^2 Bel + 75 mg/m^2 doxorubicin, Day 4 (Bel alone), N = 21): 0.617 h | AUC(0-t) ([1]; human, plasma, intravenous, AUC0–tlast, 600 mg/m^2 Bel + 50 mg/m^2 doxorubicin, Day 5 (with doxorubicin), N = 3): 10400 ng·h/mL | AUC(0-t) ([1]; human, plasma, intravenous, AUC0–tlast, 600 mg/m^2 Bel + 75 mg/m^2 doxorubicin, Day 5 (with doxorubicin), N = 6): 10400 ng·h/mL | AUC(0-t) ([1]; human, plasma, intravenous, AUC0–tlast, 800 mg/m^2 Bel + 75 mg/m^2 doxorubicin, Day 5 (with doxorubicin), N = 6): 14600 ng·h/mL | AUC(0-t) ([1]; human, plasma, intravenous, AUC0–tlast, 1000 mg/m^2 Bel + 75 mg/m^2 doxorubicin, Day 5 (with doxorubicin), N = 19): 22100 ng·h/mL | Cmax ([1]; human, plasma, intravenous, C max, 600 mg/m^2 Bel + 50 mg/m^2 doxorubicin, Day 5 (with doxorubicin), N = 3): 18300 ng/mL | Cmax ([1]; human, plasma, intravenous, C max, 600 mg/m^2 Bel + 75 mg/m^2 doxorubicin, Day 5 (with doxorubicin), N = 6): 17400 ng/mL | Cmax ([1]; human, plasma, intravenous, C max, 800 mg/m^2 Bel + 75 mg/m^2 doxorubicin, Day 5 (with doxorubicin), N = 6): 26400 ng/mL | Cmax ([1]; human, plasma, intravenous, C max, 1000 mg/m^2 Bel + 75 mg/m^2 doxorubicin, Day 5 (with doxorubicin), N = 19): 37000 ng/mL | clearance ([1]; human, plasma, intravenous, CL, 600 mg/m^2 Bel + 75 mg/m^2 doxorubicin, Day 5 (with doxorubicin), N: 3): 1850 mL/min | clearance ([1]; human, plasma, intravenous, CL, 800 mg/m^2 Bel + 75 mg/m^2 doxorubicin, Day 5 (with doxorubicin), N: 4): 1520 mL/min | clearance ([1]; human, plasma, intravenous, CL, 1000 mg/m^2 Bel + 75 mg/m^2 doxorubicin, Day 5 (with doxorubicin), N = 19): 1420 mL/min | Vd ([1]; human, plasma, intravenous, V ss, 600 mg/m^2 Bel + 50 mg/m^2 doxorubicin, Day 5 (with doxorubicin), N: 1, individual parameter presented): 72.8 L | Vd ([1]; human, plasma, intravenous, V ss, 600 mg/m^2 Bel + 75 mg/m^2 doxorubicin, Day 5 (with doxorubicin), N: 3): 90.8 L | Vd ([1]; human, plasma, intravenous, V ss, 800 mg/m^2 Bel + 75 mg/m^2 doxorubicin, Day 5 (with doxorubicin), N: 4): 58.3 L | Vd ([1]; human, plasma, intravenous, V ss, 1000 mg/m^2 Bel + 75 mg/m^2 doxorubicin, Day 5 (with doxorubicin), N = 19): 57.6 L | half-life ([1]; human, plasma, intravenous, t 1/2, 600 mg/m^2 Bel + 50 mg/m^2 doxorubicin, Day 5 (with doxorubicin), N: 1, individual parameter presented): 2.53 h | half-life ([1]; human, plasma, intravenous, t 1/2, 600 mg/m^2 Bel + 75 mg/m^2 doxorubicin, Day 5 (with doxorubicin), N: 3): 4.83 h | half-life ([1]; human, plasma, intravenous, t 1/2, 800 mg/m^2 Bel + 75 mg/m^2 doxorubicin, Day 5 (with doxorubicin), N: 4): 2.14 h | half-life ([1]; human, plasma, intravenous, t 1/2, 1000 mg/m^2 Bel + 75 mg/m^2 doxorubicin, Day 5 (with doxorubicin), N = 19): 2.13 h | Tmax ([1]; human, plasma, intravenous, t max, Median (min–max), 600 mg/m^2 Bel + 50 mg/m^2 doxorubicin, Day 5 (with doxorubicin), N = 3): 0.567 h | Tmax ([1]; human, plasma, intravenous, t max, Median (min–max), 600 mg/m^2 Bel + 75 mg/m^2 doxorubicin, Day 5 (with doxorubicin), N = 6): 0.517 h | Tmax ([1]; human, plasma, intravenous, t max, Median (min–max), 800 mg/m^2 Bel + 75 mg/m^2 doxorubicin, Day 5 (with doxorubicin), N = 6): 0.533 h | Tmax ([1]; human, plasma, intravenous, t max, Median (min–max), 1000 mg/m^2 Bel + 75 mg/m^2 doxorubicin, Day 5 (with doxorubicin), N = 19): 0.633 h | MTD of belinostat in combination with doxorubicin ([2]; 30-minute IV infusion days 1–5, 3-week schedule, doxorubicin on day 5): 1000 mg/m^2/d | Toxicity to the host mice (human tumour xenografts; mouse, in vivo): without apparent toxicity | Growth of human tumour xenografts (human tumour xenografts; ref [9]): inhibits growth | Maximum tolerated dose (MTD), monotherapy ([4]; 5 consecutive days repeated in a 3-week schedule): 1000 mg/m^2/d | Duration of prolonged stable disease (SD) in 2 STS patients ([4]; belinostat monotherapy, one value per patient): 7 months and 14 months
